ChEMBL document CHEMBL1201861, “Genomics of Drug Sensitity in Cancer screening data, Wellcome Trust Sanger Institute”

What was measured:
Test in all cases: cells
[1] = system: COLO-741; type: functional, cell-based, Homo sapiens; details: Homo sapiens, COLO-741
Description: SANGER: Inhibition of human COLO-741 cell growth in a cell viability assay.

[2] = system: CP66-MEL; type: functional, cell-based, Homo sapiens; details: Homo sapiens, CP66-MEL;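 further: growth inhibition of CP66-MEL cells determined in a cell viability assay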
Description: SANGER: Inhibition of human CP66-MEL cell growth in a cell viability assay.

[3] = system: D-263MG; type: functional, cell-based, Homo sapiens; details: Homo sapiens, D-263MG
Description: SANGER: Inhibition of human D-263MG cell growth in a cell viability assay.

[4] = system: D-392MG; type: functional, cell-based, Homo sapiens; details: Homo sapiens, D-392MG
[5] = system: DEL; type: functional, cell-based; details: Homo sapiens;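 further: growth inhibition of the human DEL cell line, read out with a cell viability assay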
Description: SANGER: Inhibition of human DEL cell growth in a cell viability assay.

[6] = system: DOK; type: functional, cell-based, Homo sapiens; details: Homo sapiens, DOK;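 further: cell viability assay read-out, values reflect inhibition of cell growth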
Description: SANGER: Inhibition of human DOK cell growth in a cell viability assay.

[7] = system: DU-145; type: functional, cell-based, Homo sapiens; details: Homo sapiens, DU-145
Description: SANGER: Inhibition of human DU-145 cell growth in a cell viability assay.

[8] = system: EC-GI-10; type: functional, cell-based, Homo sapiens; details: Homo sapiens, EC-GI-10
Description: SANGER: Inhibition of human EC-GI-10 cell growth in a cell viability assay.

[9] = system: EKVX; type: functional, cell-based, Homo sapiens; details: Homo sapiens, EKVX;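 further: growth inhibition of human EKVX cells, read out with a cell viability assay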
Description: SANGER: Inhibition of human EKVX cell growth in a cell viability assay.

[10] = system: ESS-1; type: functional, cell-based, Homo sapiens; details: Homo sapiens, ESS-1;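 further: growth inhibition of human ESS-1 cells, read out by a cell viability assay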
Description: SANGER: Inhibition of human ESS-1 cell growth in a cell viability assay.

[11] = system: GI-1; type: functional, cell-based, Homo sapiens; details: Homo sapiens, GI-1;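 further: growth inhibition of human GI-1 cells, measured with a cell viability readout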
Description: SANGER: Inhibition of human GI-1 cell growth in a cell viability assay.

[12] = system: HC-1; type: functional, cell-based; details: Homo sapiens;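 further: growth inhibition of HC-1 cells measured by a cell viability assay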
Description: SANGER: Inhibition of human HC-1 cell growth in a cell viability assay.

[13] = system: HCC38; type: functional, cell-based, Homo sapiens; details: Homo sapiens, HCC38;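 further: cell viability assay on the human HCC38 cell line, with IC50 marking the concentration that inhibits cell growth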
Description: SANGER: Inhibition of human HCC38 cell growth in a cell viability assay.

[14] = system: HCE-T; type: functional, cell-based, Homo sapiens; details: Homo sapiens, HCE-T;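 further: cell viability assay read-out, reporting inhibition of HCE-T cell growth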
Description: SANGER: Inhibition of human HCE-T cell growth in a cell viability assay.

[15] = system: HD-MY-Z; type: functional, cell-based, Homo sapiens; details: Homo sapiens, HD-MY-Z;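 further: growth inhibition of HD-MY-Z cells, read out with a cell viability assay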
Description: SANGER: Inhibition of human HD-MY-Z cell growth in a cell viability assay.

[16] = system: HO-1-N-1; type: functional, cell-based, Homo sapiens; details: Homo sapiens, HO-1-N-1;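 further: growth inhibition of human HO-1-N-1 cells, read out with a cell viability assay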
Description: SANGER: Inhibition of human HO-1-N-1 cell growth in a cell viability assay.

[17] = system: Hs-578T; type: functional, cell-based, Homo sapiens; details: Homo sapiens, Hs-578T
Description: SANGER: Inhibition of human Hs-578-T cell growth in a cell viability assay.

[18] = system: JVM-3; type: functional, cell-based; details: Homo sapiens;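 further: growth inhibition of human JVM-3 cells, read out with a cell viability assay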
Description: SANGER: Inhibition of human JVM-3 cell growth in a cell viability assay.

[19] = system: KP-N-YS; type: functional, cell-based; details: Homo sapiens;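 further: cell viability assay measuring inhibition of cell line growth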
Description: SANGER: Inhibition of human KP-N-YS cell growth in a cell viability assay.

[20] = system: MEL-HO; type: functional, cell-based, Homo sapiens; details: Homo sapiens, MEL-HO
Description: SANGER: Inhibition of human MEL-HO cell growth in a cell viability assay.

[21] = system: MMAC-SF; type: functional, cell-based, Homo sapiens; details: Homo sapiens, MMAC-SF;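 further: growth inhibition of human MMAC-SF cells, read out with a cell viability assay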
Description: SANGER: Inhibition of human MMAC-SF cell growth in a cell viability assay.

[22] = system: MN-60; type: functional, cell-based; details: Homo sapiens;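 further: growth inhibition of the MN-60 cell line, determined with a cell viability assay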
Description: SANGER: Inhibition of human MN-60 cell growth in a cell viability assay.

[23] = system: MOLT-4; type: functional, cell-based; details: Homo sapiens;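 further: growth inhibition of MOLT-4 cells, determined with a cell viability readout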
Description: SANGER: Inhibition of human MOLT-4 cell growth in a cell viability assay.

[24] = system: MS-1; type: functional, cell-based; details: Homo sapiens;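 further: growth inhibition of MS-1 cells, read out by cell viability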
Description: SANGER: Inhibition of human MS-1 cell growth in a cell viability assay.

[25] = system: Mo; type: functional, cell-based; details: Homo sapiens
Description: SANGER: Inhibition of human Mo-T cell growth in a cell viability assay.

[26] = system: NB12; type: functional, cell-based, Homo sapiens; details: Homo sapiens, NB12;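 further: growth inhibition of human NB12 cells, read out by a cell viability assay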
Description: SANGER: Inhibition of human NB12 cell growth in a cell viability assay.

[27] = system: NCI-H1299; type: functional, cell-based, Homo sapiens; details: Homo sapiens, NCI-H1299;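 further: growth inhibition of human NCI-H1299 cells, read out by a cell viability assay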
Description: SANGER: Inhibition of human NCI-H1299 cell growth in a cell viability assay.

[28] = system: NCI-H1693; type: functional, cell-based, Homo sapiens; details: Homo sapiens, NCI-H1693;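 further: growth inhibition of the human cell line, read out with a cell viability assay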
Description: SANGER: Inhibition of human NCI-H1693 cell growth in a cell viability assay.

[29] = system: NCI-H446; type: functional, cell-based; details: Homo sapiens;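 further: growth inhibition of NCI-H446 cells determined by a cell viability assay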
Description: SANGER: Inhibition of human NCI-H446 cell growth in a cell viability assay.

[30] = system: NCI-H69; type: functional, cell-based; details: Homo sapiens;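 further: growth inhibition of the cell line, read out with a cell viability assay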
Description: SANGER: Inhibition of human NCI-H69 cell growth in a cell viability assay.

[31] = system: NCI-H727; type: functional, cell-based, Homo sapiens; details: Homo sapiens, NCI-H727;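 further: growth inhibition of human NCI-H727 cells, read out with a cell viability assay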
Description: SANGER: Inhibition of human NCI-H727 cell growth in a cell viability assay.

[32] = system: NH-12; type: functional, cell-based, Homo sapiens; details: Homo sapiens, NH-12;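 further: growth inhibition of NH-12 cells, read out with a cell viability assay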
Description: SANGER: Inhibition of human NH-12 cell growth in a cell viability assay.

[33] = system: OCI-AML2; type: functional, cell-based; details: Homo sapiens;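 further: growth inhibition of OCI-AML2 cells, read out with a cell viability assay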
Description: SANGER: Inhibition of human OCI-AML2 cell growth in a cell viability assay.

[34] = system: OE19; type: functional, cell-based, Homo sapiens; details: Homo sapiens, OE19;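 further: growth inhibition of OE19 cells, measured through a cell viability read-out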
Description: SANGER: Inhibition of human OE19 cell growth in a cell viability assay.

[35] = system: P30-OHK; type: functional, cell-based; details: Homo sapiens;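 further: growth inhibition of the P30-OHK cell line, read out with a cell viability assay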
Description: SANGER: Inhibition of human P30-OHK cell growth in a cell viability assay.

[36] = system: RO82-W-1; type: functional, cell-based, Homo sapiens; details: Homo sapiens, RO82-W-1;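 further: growth inhibition of human RO82-W-1 cells, measured with a cell viability assay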
Description: SANGER: Inhibition of human RO82-W-1 cell growth in a cell viability assay.

[37] = system: SHP77; type: functional, cell-based, Homo sapiens, SHP-77; details: Homo sapiens, SHP77;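 further: growth inhibition of human SHP-77 cells measured by a cell viability assay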
Description: SANGER: Inhibition of human SHP-77 cell growth in a cell viability assay.

[38] = system: SK-LU-1; type: functional, cell-based, Homo sapiens; details: Homo sapiens, SK-LU-1;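 further: cell viability assay measuring growth inhibition of human SK-LU-1 cells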
Description: SANGER: Inhibition of human SK-LU-1 cell growth in a cell viability assay.

[39] = system: SK-N-DZ; type: functional, cell-based, Homo sapiens; details: Homo sapiens, SK-N-DZ;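 further: growth inhibition of the cancer cell line, read out through a viability assay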
Description: SANGER: Inhibition of human SK-N-DZ cell growth in a cell viability assay.

[40] = system: SW48; type: functional, cell-based, Homo sapiens; details: Homo sapiens, SW48;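 further: growth inhibition of SW48 cells, read out with a cell viability assay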
Description: SANGER: Inhibition of human SW48 cell growth in a cell viability assay.

[41] = system: SW872; type: functional, cell-based, Homo sapiens; details: Homo sapiens, SW872;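 further: growth inhibition of SW872 cells, read out by a viability assay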
Description: SANGER: Inhibition of human SW872 cell growth in a cell viability assay.

[42] = system: T47D; type: functional, cell-based, Homo sapiens; details: Homo sapiens, T47D;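 further: growth inhibition of human T47D cells, measured with a cell viability assay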
Description: SANGER: Inhibition of human T47D cell growth in a cell viability assay.

[43] = system: 697; type: functional, cell-based; details: Homo sapiens
Description: SANGER: Inhibition of human 697 cell growth in a cell viability assay.

[44] = system: A204; type: functional, cell-based, Homo sapiens; details: Homo sapiens, A204;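 further: growth inhibition of human A204 cells, read out with a cell viability assay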
Description: SANGER: Inhibition of human A204 cell growth in a cell viability assay.

[45] = system: ACN; type: functional, cell-based, Homo sapiens; details: Homo sapiens, ACN;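 further: growth inhibition of the human ACN cell line, read out via cell viability testing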
Description: SANGER: Inhibition of human ACN cell growth in a cell viability assay.

[46] = system: BCPAP; type: functional, cell-based, Homo sapiens; details: Homo sapiens, BCPAP;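 further: growth inhibition of BCPAP cells, read out in a cell viability assay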
Description: SANGER: Inhibition of human BCPAP cell growth in a cell viability assay.

[47] = system: BPH-1; type: functional, cell-based, Homo sapiens; details: Homo sapiens, BPH-1;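 further: cell viability assay measuring growth inhibition of human BPH-1 cells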
Description: SANGER: Inhibition of human BPH-1 cell growth in a cell viability assay.

[48] = system: CAL-33; type: functional, cell-based, Homo sapiens; details: Homo sapiens, CAL-33;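 further: growth inhibition of CAL-33 cells, read out with a cell viability assay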
Description: SANGER: Inhibition of human CAL-33 cell growth in a cell viability assay.

[49] = system: CAL-62; type: functional, cell-based, Homo sapiens; details: Homo sapiens, CAL-62;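 further: growth inhibition of CAL-62 cells, read out with a cell viability assay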
Description: SANGER: Inhibition of human CAL-62 cell growth in a cell viability assay.

[50] = system: UO-31; type: functional, cell-based; details: Homo sapiens;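 further: cell viability assay measuring inhibition of cell growth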
Description: SANGER: Inhibition of human U031 cell growth in a cell viability assay.

[51] = system: UMUC3; type: functional, cell-based, Homo sapiens; details: Homo sapiens, UMUC3;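 further: growth inhibition of human UM-UC-3 cells, read out with a cell viability assay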
Description: SANGER: Inhibition of human UM-UC-3 cell growth in a cell viability assay.

[52] = system: CGTH-W-1; type: functional, cell-based, Homo sapiens; details: Homo sapiens, CGTH-W-1;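 further: growth inhibition of human CGTH-W-1 cells measured by cell viability assay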
Description: SANGER: Inhibition of human CGTH-W-1 cell growth in a cell viability assay.

[53] = system: COLO-684; type: functional, cell-based; details: Homo sapiens
Description: SANGER: Inhibition of human COLO-684 cell growth in a cell viability assay.

What does the source list for `COC(=O)CNC(=O)C(=O)OC`?
IC50 [1]: > 4 mM; IC50 [2]: 445 µM; IC50 [3]: 410 µM; IC50 [4]: 1.57 mM; IC50 [5]: 72.3 µM; IC50 [6]: > 4000 µM; IC50 [7]: 825 µM; IC50 [8]: > 4000 µM; IC50 [9]: 513 µM; IC50 [10]: 198 µM; IC50 [11]: 146 µM; IC50 [12]: 569 µM; IC50 [13]: 1.74 mM; IC50 [14]: 3.44 mM; IC50 [15]: 1.48 mM; IC50 [16]: 1070 µM; IC50 [17]: 3.12 mM; IC50 [18]: > 4 mM; IC50 [19]: 1.68 mM; IC50 [20]: 3.61 mM; IC50 [21]: 881 µM; IC50 [22]: 147 µM; IC50 [23]: 718 µM; IC50 [24]: 878 µM; IC50 [25]: 1.88 mM; IC50 [26]: 85.4 µM; IC50 [27]: 2.15 mM; IC50 [28]: 3.79 mM; IC50 [29]: 646 µM; IC50 [30]: > 4000 µM; IC50 [31]: > 4 mM; IC50 [32]: > 4 mM; IC50 [33]: 501 µM; IC50 [34]: > 4 mM; IC50 [35]: 467 µM; IC50 [36]: > 4 mM; IC50 [37]: 821 µM; IC50 [38]: 66 µM; IC50 [39]: 3.09 mM; IC50 [40]: 1.99 mM; IC50 [41]: 603 µM; IC50 [42]: > 4 mM; IC50 [43]: 229 µM; IC50 [44]: 398 µM; IC50 [45]: 128 µM; IC50 [46]: 209 µM; IC50 [47]: 276 µM; IC50 [48]: 242 µM; IC50 [49]: 1.05 mM; IC50 [50]: 338 µM; IC50 [51]: 264 µM; IC50 [52]: 489 µM; IC50 [53]: 560 µM

With `CN(C)C/C=C/C(=O)Nc1cc2c(Nc3ccc(F)c(Cl)c3)ncnc2cc1O[C@H]1CCOC1` [AFATINIB] as the molecule, how does the IC50 [1] read?
The IC50 was greater than 0.0005 mM.

What about the IC50 [2] of the same molecule?
Its IC50 is greater than 0.5 µM.

And the IC50 [3]?
Its IC50 is greater than 0.5 µM.

What about the IC50 [4] of the same molecule?
The IC50 was greater than 0.0005 mM.

And the IC50 [5]?
Its IC50 is greater than 0.5 µM.

And the IC50 [6]?
Its IC50 is 0.0319 µM.

And the IC50 [7]?
The IC50 was 0.448 µM.

What about the IC50 [8] of the same molecule?
The IC50 was 0.0591 µM.

What about the IC50 [9] of the same molecule?
Its IC50 is greater than 0.5 µM.

And the IC50 [10]?
The IC50 was greater than 0.5 µM.

And the IC50 [11]?
Its IC50 is greater than 0.5 µM.

And the IC50 [12]?
The IC50 was greater than 0.5 µM.

And the IC50 [13]?
The IC50 was greater than 0.0005 mM.

What about the IC50 [14] of the same molecule?
The IC50 was greater than 0.0005 mM.

What about the IC50 [15] of the same molecule?
The IC50 was greater than 0.0005 mM.

What about the IC50 [16] of the same molecule?
The IC50 was 0.279 µM.

And the IC50 [17]?
The IC50 was greater than 0.0005 mM.

And the IC50 [18]?
The IC50 was greater than 0.0005 mM.

And the IC50 [19]?
The IC50 was greater than 0.0005 mM.

And the IC50 [20]?
The IC50 was greater than 0.0005 mM.

And the IC50 [21]?
Its IC50 is greater than 0.5 µM.

What about the IC50 [22] of the same molecule?
The IC50 was greater than 0.5 µM.

And the IC50 [23]?
The IC50 was greater than 0.5 µM.

What about the IC50 [24] of the same molecule?
The IC50 was greater than 0.5 µM.

What about the IC50 [25] of the same molecule?
The IC50 was greater than 0.0005 mM.

And the IC50 [26]?
The IC50 was greater than 0.5 µM.

What about the IC50 [27] of the same molecule?
Its IC50 is greater than 0.0005 mM.

What about the IC50 [28] of the same molecule?
The IC50 was greater than 0.0005 mM.

And the IC50 [29]?
The IC50 was greater than 0.5 µM.

And the IC50 [30]?
The IC50 was 0.215 µM.

What about the IC50 [31] of the same molecule?
The IC50 was greater than 0.0005 mM.

What about the IC50 [32] of the same molecule?
Its IC50 is greater than 0.0005 mM.

What about the IC50 [33] of the same molecule?
The IC50 was greater than 0.5 µM.

And the IC50 [34]?
The IC50 was greater than 0.0005 mM.

And the IC50 [35]?
The IC50 was greater than 0.5 µM.

What about the IC50 [36] of the same molecule?
The IC50 was greater than 0.0005 mM.

And the IC50 [37]?
Its IC50 is greater than 0.5 µM.

What about the IC50 [38] of the same molecule?
Its IC50 is greater than 0.5 µM.

What about the IC50 [39] of the same molecule?
The IC50 was greater than 0.0005 mM.

What about the IC50 [40] of the same molecule?
The IC50 was greater than 0.0005 mM.

What about the IC50 [41] of the same molecule?
Its IC50 is greater than 0.5 µM.

And the IC50 [42]?
The IC50 was greater than 0.0005 mM.

And the IC50 [43]?
Its IC50 is greater than 0.5 µM.

And the IC50 [44]?
Its IC50 is greater than 0.5 µM.

And the IC50 [45]?
The IC50 was greater than 0.5 µM.

What about the IC50 [46] of the same molecule?
The IC50 was greater than 0.5 µM.

What about the IC50 [47] of the same molecule?
Its IC50 is 0.0599 µM.

And the IC50 [48]?
The IC50 was 0.202 µM.

What about the IC50 [49] of the same molecule?
Its IC50 is greater than 0.0005 mM.

What about the IC50 [50] of the same molecule?
Its IC50 is greater than 0.5 µM.

What about the IC50 [51] of the same molecule?
The IC50 was greater than 0.5 µM.

What about the IC50 [52] of the same molecule?
The IC50 was greater than 0.5 µM.

What about the IC50 [53] of the same molecule?
The IC50 was greater than 0.5 µM.
